Source: US20230165831A1, “METHOD AND COMPOSITION FOR RENDERING CANCER CELLS SUSCEPTIBLE TO TREATMENT BY TARGETED ONCOGENETIC DRIVERS” (IMPACT BIOLIFE SCIENCE, INC., priority 2021, published 2023)
Like-named read-outs stand apart in the source and are kept apart here.

Assays:
[1] = system: ovarian cancer line SK-OV3 cells; assay: CTG (CellTiter-Glo) cell viability assay, 6×6 combo matrix, 72 h, SK-OV-3; details: SK-OV-3;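 note: luminescent signal read after CellTiter-Glo addition, cells exposed to compounds for 72 h at 37 °C under 5% CO2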
[2] = system: pancreatic cancer line Capan-1 cells; assay: CTG (CellTiter-Glo) cell viability assay, 6×6 combo matrix, 72 h, Capan-1; assay type: cell-based; details: for Relatively Cell inhibition of vehicle control(%): Capan-1
Experimental: To measure the cell inhibition effect of compounds and synergy effect of test articles on ten (10) cell lines using standard CTG assay.
b. A549, T47D, SK-OV-3, MKN45, SK-Hep-1, HT-29, Capan-1, 786-O and LNCaP cell line, for compounds and vehicle groups, the seeding density of cell lines is 3000 cells/80 µL per well. For blank groups, add 100 µL medium. For PBS groups, add 100 µL PBS.
8) Incubate the U87MG, A549, T47D, SK-OV-3, MKN45, SK-Hep-1, HT-29, Capan-1, 786-O and LNCaP cells overnight at 37° C./5% CO2.
5) Incubate the plates at 37° C./5% CO2 for 72 hours.
6) Read plates in Envision.

[3] = system: Liver cancer line SK-HEP-1 cells; assay: CTG (CellTiter-Glo) cell viability assay, 6×6 combo matrix, 72 h, SK-Hep-1; details: Homo sapiens;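 note: luminescent signal read after 72 h compound exposure at 37 °C under 5% CO2, with medium-only wells serving as blank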
Experimental: (§1) 7) Using complete cell medium, adjust the volume of the suspension to achieve a cell concentration.
(§2) Solid compound of cis-platinum was solubilized in PBS to a stock solution of 3.333 mM.
(§3) Final volume is 100 µL per well at this point.
(§4) 1) Incubate the plates at room temperature and away from light for 30 minutes.
(§5) 3) Add 100 µL /well of CellTiter-Glo® Reagent in each well. Avoid light.
(§6) 4) Mix contents for 2 minutes on an orbital shaker.
(§7) 5) Incubate plate at room temperature for 10 minutes to stabilize the luminescent signal.

[4] = system: gastric cancer line MKN45 cells; assay: CTG (CellTiter-Glo) cell viability assay, 6×6 combo matrix, 72 h, MKN45;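 note: MKN45 cell viability read as CellTiter-Glo luminescence after 72 h culture at 37 °C under 5% CO2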
Experimental: as §1, §2, §3, §4, §5, §6, §7

[5] = system: colorectal cancer line HT29 cells; assay: CTG (CellTiter-Glo) cell viability assay, 6×6 combo matrix, 72 h, HT29; details: HT29;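 note: cells exposed to compounds for 72 hours at 37 °C under 5% CO2, then viability read as luminescence after adding CellTiter-Glo Reagent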
[6] = Myr 100 µM only (cisplatin matrix)
[7] = Homo sapiens, CAPAN-1, read-out: inhibition rate

`O=c1c(O)c(-c2cc(O)c(O)c(O)c2)oc2cc(O)cc(O)c12` [myricetin] was tested. Which “Relatively Cell inhibition of vehicle control(%)” value [1, 6] did it give?
The value was 89.47%.

What about the “Relatively Cell inhibition of vehicle control(%)” value ([1]; Myr 100 µM only (doxorubicin matrix)) of the same compound?
The value was 91.33%.

What about the “Relatively Cell inhibition of vehicle control(%)” value ([1]; Myr 100 µM only (taxol matrix)) of the same compound?
Its value is 87.91%.

What about the “Relatively Cell inhibition of vehicle control(%)” value ([1]; Myr 100 µM only (topotecan matrix)) of the same compound?
Its value is 87.18%.

What about the inhibition at 4 µM [2, 7] of the same compound?
Its inhibition at 4 µM is 6.24%.

And the inhibition at 100 µM [2, 7]?
The inhibition at 100 µM was 23.3%.

And the “Relatively Cell inhibition of vehicle control(%)” value ([2]; Myr 4 pM only (topotecan matrix))?
The value was 0.67%.

And the “Relatively Cell inhibition of vehicle control(%)” value ([2]; Myr 20 pM only (doxorubicin matrix))?
The value was 11.98%.

And the “Relatively Cell inhibition of vehicle control(%)” value ([2]; Myr 20 pM only (topotecan matrix))?
The value was 5.10%.

What about the “Relatively Cell inhibition of vehicle control(%)” value ([2]; Myr 100 pM only (doxorubicin matrix)) of the same compound?
Its value is 30.94%.

And the “Relatively Cell inhibition of vehicle control(%)” value ([2]; Myr 0.8 µM only (cisplatin matrix))?
Its value is 1.28%.

And the “Relatively Cell inhibition of vehicle control(%)” value ([2]; Myr 0.8 µM only (doxorubicin matrix))?
The value was 7.91%.

And the “Relatively Cell inhibition of vehicle control(%)” value ([2]; Myr 0.8 µM only (taxol matrix))?
The value was 3.71%.

What about the “Relatively Cell inhibition of vehicle control(%)” value ([2]; Myr 0.8 µM only (topotecan matrix)) of the same compound?
The value was -6.16%.

What about the “Relatively Cell inhibition of vehicle control(%)” value ([2]; Myr 4 µM only (cisplatin matrix)) of the same compound?
Its value is 6.73%.

What about the “Relatively Cell inhibition of vehicle control(%)” value ([2]; Myr 4 µM only (taxol matrix)) of the same compound?
The value was 7.41%.

What about the “Relatively Cell inhibition of vehicle control(%)” value ([2]; Myr 20 µM only (cisplatin matrix)) of the same compound?
Its value is 10.48%.

And the “Relatively Cell inhibition of vehicle control(%)” value ([2]; Myr 20 µM only (taxol matrix))?
The value was 9.11%.

What about the “Relatively Cell inhibition of vehicle control(%)” value [2, 6] of the same compound?
The value was 31.40%.

What about the “Relatively Cell inhibition of vehicle control(%)” value ([2]; Myr 100 µM only (taxol matrix)) of the same compound?
The value was 30.66%.

What about the inhibition at 0.8 µM ([3]; SK-HEP1, read-out: Relatively Cell inhibition of vehicle control, myricetin 0.8 µM only (cisplatin table)) of the same compound?
The inhibition at 0.8 µM was -11.5%.

And the inhibition at 0.8 µM ([3]; SK-HEP1, read-out: Relatively Cell inhibition of vehicle control, myricetin 0.8 µM only (doxorubicin table))?
Its inhibition at 0.8 µM is -9.74%.

What about the inhibition at 0.8 µM ([3]; SK-HEP1, read-out: Relatively Cell inhibition of vehicle control, myricetin 0.8 µM only (taxol table)) of the same compound?
The inhibition at 0.8 µM was -6.66%.

And the inhibition at 0.8 µM ([3]; SK-HEP1, read-out: Relatively Cell inhibition of vehicle control, myricetin 0.8 µM only (topotecan table))?
The inhibition at 0.8 µM was -19.3%.

And the inhibition at 4 µM ([3]; SK-HEP1, read-out: Relatively Cell inhibition of vehicle control, myricetin 4 µM only (cisplatin table))?
Its inhibition at 4 µM is 20.2%.

What about the inhibition at 4 µM ([3]; SK-HEP1, read-out: Relatively Cell inhibition of vehicle control, myricetin 4 µM only (doxorubicin table)) of the same compound?
Its inhibition at 4 µM is 32.3%.

And the inhibition at 4 µM ([3]; SK-HEP1, read-out: Relatively Cell inhibition of vehicle control, myricetin 4 µM only (taxol table))?
The inhibition at 4 µM was 22.8%.

And the inhibition at 4 µM ([3]; SK-HEP1, read-out: Relatively Cell inhibition of vehicle control, myricetin 4 µM only (topotecan table))?
The inhibition at 4 µM was 16.8%.

What about the inhibition at 20 µM ([3]; SK-HEP1, read-out: Relatively Cell inhibition of vehicle control, myricetin 20 µM only (cisplatin table)) of the same compound?
Its inhibition at 20 µM is 92.4%.

What about the inhibition at 20 µM ([3]; SK-HEP1, read-out: Relatively Cell inhibition of vehicle control, myricetin 20 µM only (doxorubicin table)) of the same compound?
Its inhibition at 20 µM is 93.5%.

What about the inhibition at 20 µM ([3]; SK-HEP1, read-out: Relatively Cell inhibition of vehicle control, myricetin 20 µM only (taxol table)) of the same compound?
Its inhibition at 20 µM is 92.8%.

And the inhibition at 20 µM ([3]; SK-HEP1, read-out: Relatively Cell inhibition of vehicle control, myricetin 20 µM only (topotecan table))?
Its inhibition at 20 µM is 93.2%.

And the inhibition at 100 µM ([3]; SK-HEP1, read-out: Relatively Cell inhibition of vehicle control, myricetin 100 µM only (cisplatin table))?
Its inhibition at 100 µM is 99.6%.

And the inhibition at 100 µM ([3]; SK-HEP1, read-out: Relatively Cell inhibition of vehicle control, myricetin 100 µM only (doxorubicin table))?
The inhibition at 100 µM was 99.4%.

What about the inhibition at 100 µM ([3]; SK-HEP1, read-out: Relatively Cell inhibition of vehicle control, myricetin 100 µM only (taxol table)) of the same compound?
The inhibition at 100 µM was 99.6%.

What about the inhibition at 100 µM ([3]; SK-HEP1, read-out: Relatively Cell inhibition of vehicle control, myricetin 100 µM only (topotecan table)) of the same compound?
The inhibition at 100 µM was 99.4%.

What about the “Relatively Cell inhibition of vehicle control(%)” value ([4]; Myr 0.8 µM only (Cis 0)) of the same compound?
The value was 5.96%.

What about the “Relatively Cell inhibition of vehicle control(%)” value ([4]; Myr 0.8 µM only (Dox 0)) of the same compound?
The value was 1.79%.

And the “Relatively Cell inhibition of vehicle control(%)” value ([4]; Myr 0.8 µM only (Tax 0))?
The value was 0.13%.

And the “Relatively Cell inhibition of vehicle control(%)” value ([4]; Myr 0.8 µM only (Top 0))?
The value was -8.02%.

And the “Relatively Cell inhibition of vehicle control(%)” value ([4]; Myr 4 µM only (Cis 0))?
Its value is 6.78%.

What about the “Relatively Cell inhibition of vehicle control(%)” value ([4]; Myr 4 µM only (Dox 0)) of the same compound?
The value was 2.42%.

What about the “Relatively Cell inhibition of vehicle control(%)” value ([4]; Myr 4 µM only (Tax 0)) of the same compound?
Its value is -1.75%.

What about the “Relatively Cell inhibition of vehicle control(%)” value ([4]; Myr 4 µM only (Top 0)) of the same compound?
Its value is -4.89%.

And the “Relatively Cell inhibition of vehicle control(%)” value ([4]; Myr 20 µM only (Cis 0))?
The value was 14.42%.

What about the “Relatively Cell inhibition of vehicle control(%)” value ([4]; Myr 20 µM only (Dox 0)) of the same compound?
Its value is 13.04%.

And the “Relatively Cell inhibition of vehicle control(%)” value ([4]; Myr 20 µM only (Tax 0))?
Its value is 5.06%.

And the “Relatively Cell inhibition of vehicle control(%)” value ([4]; Myr 20 µM only (Top 0))?
Its value is 1.70%.

What about the “Relatively Cell inhibition of vehicle control(%)” value ([4]; Myr 100 µM only (Cis 0), listed as Myr) of the same compound?
Its value is 44.00%.

What about the “Relatively Cell inhibition of vehicle control(%)” value ([4]; Myr 100 µM only (Dox 0)) of the same compound?
The value was 35.29%.

What about the “Relatively Cell inhibition of vehicle control(%)” value ([4]; Myr 100 µM only (Tax 0)) of the same compound?
Its value is 32.89%.

What about the “Relatively Cell inhibition of vehicle control(%)” value ([4]; Myr 100 µM only (Top 0)) of the same compound?
Its value is 29.93%.

What about the “Relatively Cell inhibition of vehicle control(%)” value ([5]; Myr 0.8 µM only (Cis 0)) of the same compound?
Its value is 3.87%.

And the “Relatively Cell inhibition of vehicle control(%)” value ([5]; Myr 0.8 µM only (Dox 0))?
The value was -1.09%.

What about the “Relatively Cell inhibition of vehicle control(%)” value ([5]; Myr 0.8 µM only (Tax 0)) of the same compound?
The value was -1.36%.

What about the “Relatively Cell inhibition of vehicle control(%)” value ([5]; Myr 0.8 µM only (Top 0)) of the same compound?
The value was -0.48%.

And the “Relatively Cell inhibition of vehicle control(%)” value ([5]; Myr 4 µM only (Cis 0))?
Its value is 6.56%.

What about the “Relatively Cell inhibition of vehicle control(%)” value ([5]; Myr 4 µM only (Dox 0)) of the same compound?
Its value is -0.67%.

What about the “Relatively Cell inhibition of vehicle control(%)” value ([5]; Myr 4 µM only (Tax 0)) of the same compound?
Its value is 0.80%.

And the “Relatively Cell inhibition of vehicle control(%)” value ([5]; Myr 4 µM only (Top 0))?
The value was 3.33%.

What about the “Relatively Cell inhibition of vehicle control(%)” value ([5]; Myr 20 µM only (Cis 0)) of the same compound?
The value was 24.55%.

And the “Relatively Cell inhibition of vehicle control(%)” value ([5]; Myr 20 µM only (Dox 0))?
The value was 23.37%.

And the “Relatively Cell inhibition of vehicle control(%)” value ([5]; Myr 20 µM only (Tax 0))?
The value was 32.84%.

What about the “Relatively Cell inhibition of vehicle control(%)” value ([5]; Myr 20 µM only (Top 0)) of the same compound?
The value was 24.77%.

And the “Relatively Cell inhibition of vehicle control(%)” value ([5]; Myr 100 µM only (Cis 0))?
The value was 90.42%.

And the “Relatively Cell inhibition of vehicle control(%)” value ([5]; Myr 100 µM only (Dox 0))?
The value was 74.39%.

What about the “Relatively Cell inhibition of vehicle control(%)” value ([5]; Myr 100 µM only (Tax 0)) of the same compound?
Its value is 88.39%.

What about the “Relatively Cell inhibition of vehicle control(%)” value ([5]; Myr 100 µM only (Top 0)) of the same compound?
The value was 87.04%.
